Laboratory results published in patent publication US10961539B2, “Promoter system inducing expression by 3-hydroxypropionic acid and method for biological production of 3-hydroxypropionic acid using same” (NOROO IC Co., Ltd., priority 2015, dated 2021).

What was measured:
[1] = tested on: 3hpdh, 3hibdhIV, and mmsadh; experiment: Inducer specificity of gene expression (FIGS. 4 and 5); assay type: cell-based, Pseudomonas denitrificans; details: for amplification of the genes 3hpdh, 3hibdhIV and mmsadh by the compound: FIGS. 4 and 5; for inducer of expression of mmsadh and 3hibdhIV: FIG. 4
3hpdh = experiment: RT-PCR relative mRNA level of 3-HP catabolic gene; details: FIG. 5

For `OCCCO` [1,3-propanediol], the “amplification of the genes 3hpdh, 3hibdhIV and mmsadh by the compound” value (“amplification of the genes 3hpdh” below) [1] was “not induced”.

With `CC(O)C(C)O` (centres unmarked) [2,3-butandiol] the “amplification of the genes 3hpdh” value [1] was “not induced”.

In the case of `CC(O)CC(=O)O` (centres unmarked) [3-HB, 3-hydroxybutyrate], the “inducer of expression of mmsadh and 3hibdhIV” value [1] was “acts as an inducer”, the “amplification of the genes 3hpdh” value [1] was “amplified” and the “inducer of expression of 3hpdH” value (3hpdh) was “acts as an inducer”.

With `CC(CO)C(=O)O` (centres unmarked) [3HIB, 3-hydroxyisobutyrate] the “inducer of expression of mmsadh and 3hibdhIV” value [1] was “acts as an inducer”, the “amplification of the genes 3hpdh” value [1] was “amplified” and the “inducer of expression of 3hpdH” value (3hpdh) was “acts as an inducer”.

With `CC(C)[C@H](N)C(=O)O` [L-valine] the “inducer of expression of mmsadh and 3hibdhIV” value [1] was “acts as an inducer”, the “amplification of the genes 3hpdh” value [1] was “induced” and the “inducer of expression of 3hpdH” value (3hpdh) was “acts as an inducer”.

`CC(=O)O` [acetic acid] was tested, and the “amplification of the genes 3hpdh” value [1] was “not induced”.

`CC(O)C(=O)O` (centres unmarked) [lactic acid] was tested, and the “amplification of the genes 3hpdh” value [1] was “not induced”.

With `CCC(=O)O` [propionic acid] the “amplification of the genes 3hpdh” value [1] was “not induced”.
